Our source for the inhibition, IC50 and anti-proliferative activity values is PMC4702177, “Discovering new mTOR inhibitors for cancer treatment through virtual screening methods and in vitro assays” (Scientific Reports, 2016).

The target in experiment [1] is T1, human recombinant mTOR kinase (Homo sapiens, UniProt P42345).
T1 construct: a purified recombinant mTOR fragment (amino acids 1360-2549, CBA104-1KIT from Calbiochem); purchased Calbiochem CBA104-1KIT
In words: In vitro mTOR kinase assay (K-LISA ELISA, p70S6K-GST substrate). It counts as biochemical. As to conditions: for inhibition at 10 µM: triplicate measurements; for IC50: mean ± SD of triplicate measurements. The procedure:
The mTOR kinase inhibitory activities of the 41 final virtual hits were determined using an ELISA-based activity assays that utilize a p70S6K-GST fusion protein as a specific mTOR substrate (see the Experimental Section for details). For the initial screening, all the activities were measured at a concentration of 10 μM.
mTOR activity was evaluated using a purified recombinant mTOR fragment (amino acids 1360-2549, CBA104-1KIT from Calbiochem). The K-LISA^TM mTOR activity kit is an ELISA-based activity assay for detection of phosphorylation of a p70S6K-GST fusion protein (a specific mTOR substrate) in the presence of ATP. The assay was optimized for use with mTOR as described in the Calbiochem protocol. The assay takes place in 96-well plates and can be divided into two phases: an mTOR kinase reaction phase and phosphorylated substrate detection phase.
In the kinase reaction phase, the following components were mixed in the same well: 5 μL of a solution containing 5 μg/mL mTOR substrate (recombinant p70S6K-GST fusion protein) in Tris-buffered saline (1 L TBS: sodium chloride 8.8 g, Tris Base 2.4 g, HCl 13 mL, Tween-20 10 ml, ddH2O), 5 μL ATP solution containing 20 mM ATP diluted in kinase assay buffer (pH 7.4, 0.01% Tween 20, 1 mM EDTA, 10 mM MgCl2, 1 mM DTT), […] of human recombinant mTOR kinase at the optimal concentration (80 ng/well) diluted in kinase assay buffer, and 5 μL of serial dilutions of inhibitors diluted in DMSO and kinase assay buffer. For each inhibitor concentration, the assay was run in triplicate. The final reaction volume was 100 μL per well, and samples incubated for 30 min at room temperature.
The kinase reaction was stopped by adding 10 μL kinase stop solution to each well. The phosphorylated substrate was detected using Anti-p70S6K-pT389 antibody, followed by detection with HRP-Antibody Conjugate and TMB Substrate. Then, ELISA stop solution was added to each well to stop the reaction, and relative mTOR inhibition activity was determined by reading the absorbance at dual wavelengths of 450/540 nm.

A further experiment concerns the target mTOR kinase. Also on record: method as in PMID 11575159. The note with it: read-out: IC50 (mTOR kinase, reported); cited from earlier work.
The subject of a further experiment is C6 (Glioma cell). In words: In vitro cell proliferation assay. It counts as cell-based. As to conditions: data not shown. Here is the method: (§1) Most human breast cancer cells and cervical cancer cells become resistant to current chemotherapeutic drugs due to mutation of apoptotic mechanisms. It has been reported that MCF-7 cells are resistant to most of the drugs approved by the US Food and Drug Administration (FDA), including paclitaxel, doxorubicin, 5-fluorouracil, etoposide, and camptothecin[31][32].
(§2) Cell proliferation was measured with an MTS assay (CellTiter 96 Aqueous ONE Solution kit; Promega, Madison, USA). MCF-7, HeLa, MGC-803, C6 and U87 cells in log-phase were seeded (5 × 10^3 cells/well) in 96-well plates for 24 h, and then the medium were replaced with fresh medium containing different concentrations of compounds. […] After incubation for 48 h, the cells were further incubated with 20 μL of MTS for 1–4 h at 37 °C in a humidified incubator with 5% CO2. The absorbance at 490 nm was measured using a mircoplate reader (Model680, Bio-Rad; Hercules, CA, USA). The inhibition rate (%) was calculated as equation (1): […]
(§3) IC50 values were determined from the results of at least three independent tests and calculated from the inhibition curves.

In experiment [2] the test system is HeLa (human cervical cancer cell). In words: In vitro cell proliferation assay. The experiment is classed as cell-based. As to conditions: data not shown. Here is the method:
as §1, §2, §3

The test system of experiment [3] is MCF-7 (human breast cancer cell). Kind of experiment: In vitro cell proliferation assay. It counts as cell-based. The note with it: data not shown. Here is the method:
as §1, §2, §3

Experiment [4] deals with MGC-803 (human gastric cancer). Kind of experiment: In vitro cell proliferation assay. As to conditions: data not shown. The experiment is classed as cell-based. Here is the method: as §1, §2, §3
In a further experiment the test system is U87 cells (Glioma cell). Kind of experiment: In vitro cell proliferation assay. The experiment is classed as cell-based. As to conditions: data not shown. Here is the method:
as §1, §2, §3

Values joined by “and” are separate entries in the source; they are usually repeats but may differ in a detail not shown here. Identical values can stand only once.

T1 sequence (P42345 1360-2549): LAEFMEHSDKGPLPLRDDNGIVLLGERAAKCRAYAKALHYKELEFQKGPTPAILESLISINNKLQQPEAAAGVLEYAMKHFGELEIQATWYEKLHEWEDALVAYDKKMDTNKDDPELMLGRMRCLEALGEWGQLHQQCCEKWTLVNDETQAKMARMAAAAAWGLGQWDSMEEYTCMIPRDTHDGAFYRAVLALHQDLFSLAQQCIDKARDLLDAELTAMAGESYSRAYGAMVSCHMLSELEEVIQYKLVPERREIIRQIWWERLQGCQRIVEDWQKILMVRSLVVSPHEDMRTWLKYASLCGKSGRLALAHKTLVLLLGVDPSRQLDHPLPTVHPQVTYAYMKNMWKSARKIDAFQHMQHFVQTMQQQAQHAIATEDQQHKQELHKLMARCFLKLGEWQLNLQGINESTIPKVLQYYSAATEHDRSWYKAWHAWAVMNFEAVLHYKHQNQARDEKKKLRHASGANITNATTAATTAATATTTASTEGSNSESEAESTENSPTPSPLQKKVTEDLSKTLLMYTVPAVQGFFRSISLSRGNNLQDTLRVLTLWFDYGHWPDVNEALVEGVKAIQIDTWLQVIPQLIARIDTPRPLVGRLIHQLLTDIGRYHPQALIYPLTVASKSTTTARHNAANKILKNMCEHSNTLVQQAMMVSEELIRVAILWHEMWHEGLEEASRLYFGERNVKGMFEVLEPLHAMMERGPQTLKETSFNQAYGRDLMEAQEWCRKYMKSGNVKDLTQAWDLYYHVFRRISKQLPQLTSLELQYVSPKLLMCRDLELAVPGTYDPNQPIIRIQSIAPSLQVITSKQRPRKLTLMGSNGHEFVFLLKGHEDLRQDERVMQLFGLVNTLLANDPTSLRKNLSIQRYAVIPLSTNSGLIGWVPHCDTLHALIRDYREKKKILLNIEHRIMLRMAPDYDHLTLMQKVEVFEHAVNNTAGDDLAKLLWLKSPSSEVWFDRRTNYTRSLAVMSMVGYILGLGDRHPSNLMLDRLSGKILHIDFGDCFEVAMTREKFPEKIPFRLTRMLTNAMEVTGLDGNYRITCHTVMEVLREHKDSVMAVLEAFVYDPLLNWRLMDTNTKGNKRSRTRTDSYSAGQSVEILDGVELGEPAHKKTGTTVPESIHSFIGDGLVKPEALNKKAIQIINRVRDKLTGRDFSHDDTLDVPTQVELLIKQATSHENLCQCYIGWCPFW

Turning to `O=[N+]([O-])c1c(Nc2ccc3c(c2)OCO3)cc(N2CCOCC2)c2nonc12` [Compound 18], in experiment [1], the inhibition at 10 µM came out at 38% and the IC50 was > 50 µM. The matching figures for `O=C(CCl)Nc1ccc(/C=C2\CCCn3c2nc2cc(NC(=O)CCl)ccc2c3=O)cc1` [Compound 36]: 31% and 14.9 ± 1.01 µM. In the case of `COC[C@H]1OC(=O)c2coc3c2[C@@]1(C)C1=C(C3=O)[C@@H]2CCC(=O)[C@@]2(C)C[C@H]1OC(C)=O` [Wortmanin], the IC50 on mTOR kinase is […]. Turning to `Clc1ccc(-c2nnc3sc(-c4cnccn4)nn23)cc1` [Compound 20], in experiment [1], the inhibition at 10 µM is 55%; the IC50 is < 10 µM and 9.2 µM. Regarding `O=C(NC(=S)Nc1ccc2oc(-c3cccnc3)nc2c1)c1ccco1` [Compound 26], in experiment [1], the inhibition at 10 µM stood at 33% and the IC50 is > 50 µM. The matching figures for `COC(=O)c1sc2nc(-c3ccccc3)nc(N3CCOCC3)c2c1C` [Compound 25]: 36% and > 50 µM. As to `CNc1cccc2c(NC(=S)NC(=O)c3cccc(C(=O)NC(C)=S)c3)cccc12` [Compound 40], the inhibition at 10 µM in experiment [1] came to 91%. The IC50 in experiment [1] is < 10 µM and 1.47 µM. The anti-proliferative activity entry (in the experiment on C6 (Glioma cell); in experiment [2]; in experiment [3]; in experiment [4]; in the experiment on U87 cells (Glioma cell)) was “do not show anti-proliferative activity” throughout.

As for `COc1c(-c2ccoc2)oc2ccc(C)cc2c1=O` [Compound 37], the inhibition at 10 µM in experiment [1] stood at 22%.

With `COc1cccc(-c2nn3c(N)c(C#N)c(-c4cccnc4)nc3c2C)c1` [Compound 27], in experiment [1], the inhibition at 10 µM was 38% and the IC50 was 28.6 ± 2.65 µM. The matching figures for `c1coc(-c2nnc3sc(-c4cnccn4)nn23)c1` [Compound 21]: 50% and 14.4 ± 2.02 µM. `Cc1cc(=O)n2nc(N)c(/N=N/c3ccccc3)c2[nH]1` [Compound 9]: the inhibition at 10 µM in experiment [1] came out at 23%. Same read-out and setting: next, `Nc1nc2ncc(-c3n[nH]cc3[N+](=O)[O-])cn2n1` [Compound 12]: 30%; `NC(=O)c1nnn(Cc2cc(Cl)c(C(=O)c3ccc(Cl)cc3)c(Cl)c2)c1N` [Compound 33]: 21%. The same measure, in the same setting: next, `COc1cc(/C=C2/SC(=S)N(C)C2=O)ccc1Oc1nc(N2CCOCC2)nc(N2CCOCC2)n1` [Compound 6]: 22%.
